The numbers were not newly measured in patent US8518957B2, “Methanocarba adenosine derivatives, pharmaceutical compositions, and method of reducing intraocular pressure” (The United States of America, as represented by the …, priority 2009, dated 2013), which cites them from elsewhere.

One data set addresses T1, human A3AR (Homo sapiens, UniProt P0DMS8).
T1 construct: expressed in transfected cells
T1 sequence (P0DMS8 1-318): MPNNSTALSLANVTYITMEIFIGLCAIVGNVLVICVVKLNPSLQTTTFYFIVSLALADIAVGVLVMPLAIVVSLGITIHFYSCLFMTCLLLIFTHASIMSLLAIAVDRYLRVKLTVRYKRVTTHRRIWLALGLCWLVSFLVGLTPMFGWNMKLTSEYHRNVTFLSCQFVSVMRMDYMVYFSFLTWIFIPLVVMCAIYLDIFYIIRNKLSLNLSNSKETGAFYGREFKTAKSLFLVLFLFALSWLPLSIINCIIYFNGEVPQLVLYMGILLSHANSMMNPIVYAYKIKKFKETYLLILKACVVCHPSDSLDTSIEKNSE
The conditions noted are these: model compounds; values from Tosh et al. and Melman et al.; read-out: Affinity (Ki, nM), A3; cited from earlier work.

For another data set, the target named is T2, human A1 AR (Homo sapiens, UniProt P30542).
T2 construct: expressed in transfected cells
T2 sequence (P30542 1-326): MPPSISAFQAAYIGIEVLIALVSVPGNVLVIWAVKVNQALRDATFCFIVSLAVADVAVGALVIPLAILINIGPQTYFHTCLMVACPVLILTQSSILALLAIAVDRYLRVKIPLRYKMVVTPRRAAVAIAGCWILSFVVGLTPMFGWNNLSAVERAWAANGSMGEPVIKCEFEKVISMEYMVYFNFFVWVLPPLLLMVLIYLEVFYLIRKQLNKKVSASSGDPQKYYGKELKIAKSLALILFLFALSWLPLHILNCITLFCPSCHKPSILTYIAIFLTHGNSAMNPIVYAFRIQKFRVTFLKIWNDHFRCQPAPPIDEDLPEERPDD
The conditions noted are these: model compounds; values from Tosh et al. and Melman et al.; read-out: Affinity (Ki, nM), A1; cited from earlier work.

The target of a further data set is T3, hA2AAR (Homo sapiens, UniProt P29274).
T3 construct: expressed in transfected cells
T3 sequence (P29274 whole entry): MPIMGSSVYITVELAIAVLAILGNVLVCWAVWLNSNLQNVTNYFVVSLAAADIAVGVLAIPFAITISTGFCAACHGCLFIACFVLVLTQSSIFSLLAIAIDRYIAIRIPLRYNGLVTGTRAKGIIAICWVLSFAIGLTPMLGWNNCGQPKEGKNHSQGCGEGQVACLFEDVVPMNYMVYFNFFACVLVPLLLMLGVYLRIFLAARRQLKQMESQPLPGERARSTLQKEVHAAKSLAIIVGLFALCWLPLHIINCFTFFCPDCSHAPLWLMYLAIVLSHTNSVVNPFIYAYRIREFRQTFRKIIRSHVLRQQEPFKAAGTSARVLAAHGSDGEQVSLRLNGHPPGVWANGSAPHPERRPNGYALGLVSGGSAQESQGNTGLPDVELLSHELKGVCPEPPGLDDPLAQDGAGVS
The following applies: at 10 μM; model compounds; values from Tosh et al. and Melman et al.; cited from earlier work.

`CNC(=O)C12CC1C(n1cnc3c(NCc4cccc(C#CCCCCC(=O)NCCNC(C)=O)c4)nc(Cl)nc31)C(O)C2O` (stereo not drawn) [Compound 104c]: the values for the Ki at human A3AR and at human A1 AR were 228 nM and 181 nM, respectively. Besides, the “% inhibition, A2A” value on hA2AAR is on record as “(80%)”.

The term Ki denotes the dissociation constant of the complex between target and ligand, obtained from inhibition or displacement.
